Where “and” joins values, the source holds several entries; their conditions need not be identical. Identical values can stand only once. Like-named read-outs stand apart in the source and are kept apart here.
What was measured:
[1] = tested on: M5076 reticulum cell sarcoma; test: ip M5076 reticulum cell sarcoma assay in mice; conditions: for MTD (maximally tolerated dose) / ILS max (maximum increase in lifespan): Table C, ip qD × 10; for MTD (maximally tolerated dose): B6D2F1 female mice; for ILS max (maximum increase in lifespan): ip M5076 sarcoma mice, slash = separate experiments, compound 2: seven experiments; for activity in the ip M5076 reticulum cell sarcoma assay: in words, based on Tables C and D
Protocol: Another chemosensitive tumor model is intraperitoneally (ip) implanted M5076 reticulum cell sarcoma in mice. In this system B6D2F1 female mice are inoculated with 0.5 ml of a 10 percent weight:volume (w:v) brei of M5076 prepared from pooled subcutaneous (sc) tumors excised at about 21 days from c57B1/6 donor mice. Drugs are administered ip. Daily treatment is begun 24 hours after implantation and is continued for ten days. The treatment regimen for M5076 is more prolonged than for P388 because of the slower growth rate and longer control survival time of the M5076 tumor.

[2] = tested on: B16 melanoma cells (highly metastatic subline, F10); test: B16 melanoma in vitro cloning (colony forming) assay, 2 hour exposure; format: cell-based; conditions: Table A, Formula (I), read-out: IC50: concentration which inhibits cloning efficiency of B16 melanoma cells by 50%
Protocol: Initially, the cytotoxic activity of the Formula (I) and Formula (IA) compounds used in the pharmaceutical compositions and methods of treatment of the instant invention was evaluated in vitro using B16 melanoma cells according to the following assay:
B16 melanoma (highly metastatic subline, F10) are used and maintained as monolayer cultures in Minimal Essential Media (Grand Island Biological Co., Grand Island, N.Y. ) supplemented with 10% calf serum, 1% antibiotics in a 5% CO2 humidified incubator at 37° C. Asynchronous populations of cells are harvested and replated to 5000 cells/plate in sterile 60 mm×15 mm petri plates. Plates are incubated overnight to allow attachment of the cells to the plate. Cells are treated with a Formula (I) or Formula (IA) compound or cisplatin under sterile conditions, allowed to react for 2 hours followed by aspiration of medium. Plates are washed one time with 5 ml of phosphate buffered saline (PBS), followed by the addition of 5 ml of fresh media. Plates are incubated for 5 days at 37° in a CO2 incubator. Viability is measured by the ability of a cell to form a colony of greater than 50 cells. Colonies are fixed with 0.5% crystal violet in 95% ethanol. Plates are dried and counted with a Biotran III Automatic Count Totalizer (New Brunswick Scientific Co., Edison, N.J.). Mean and standard deviation of triplicate samples are determined for each drug concentration. The data are analyzed by plotting the log of the survival fraction (number of colonies in drug treated plates/number of colonies in controls) versus the drug concentration.
^(a) concentration which inhibits cloning efficiency of B16 melanoma
cells by 50% on a 2hour exposure.

in vivo = conditions: mouse, ip
[3] = Table B, B6D2F1 female mice, ip qD × 5
[4] = Table B, ip P388 leukemia mice, ip days 1-5, slash-separated figures are separate experiments, compound 2: 35 experiments

For `CC(C[PH]([Au][Cl])(c1ccccc1)c1ccccc1)[PH]([Au][Cl])(c1ccccc1)c1ccccc1` (stereo not shown) [Compound 9, μ-[1,2-Bis(Diphenylphosphino)Propane]Bis[Chlorogold(I)]], the “MTD (maximally tolerated dose)” value [1] was 5 mg/kg, the “ILS max (maximum increase in lifespan)” value [1] was 98% and the “activity in the ip M5076 reticulum cell sarcoma assay” value (shortened to “activity”) [1] was “good activity”. The “MTD (maximally tolerated dose)” value (P388 leukemia; [3]) was 6 mg/kg and the “ILS (maximum increase in lifespan)” value (P388 leukemia; [4]) was 45% and 60% and 35%.
In the case of `[Cl][Au][PH](C=C[PH]([Au][Cl])(c1ccccc1)c1ccccc1)(c1ccccc1)c1ccccc1` [Compound 7, μ-[Cis-1,2-Bis(Diphenylphosphino)Ethylene]Bis[Chlorogold(I)]], the IC50 [2] is reported as 7 µM, the “MTD (maximally tolerated dose)” value [1] is reported as 3 mg/kg and the “ILS max (maximum increase in lifespan)” value [1] is reported as 90%. The “activity” value [1] was “good activity”, the “MTD (maximally tolerated dose)” value (P388 leukemia; [3]) was 4 mg/kg and the “ILS (maximum increase in lifespan)” value (P388 leukemia; [4]) was 105% and 77%.
`c1ccc(P(CCCCCP(c2ccccc2)c2ccccc2)c2ccccc2)cc1` [Compound 39, Bis (1,5-diphenylphosphino)pentane] showed an MTD (in vivo) of 8 mg/kg.
With `Fc1cccc(P(CCP(c2cccc(F)c2)c2cccc(F)c2)c2cccc(F)c2)c1` [Compound 46, 1,2-Ethanediyl-bis[bis(3-fluorophenyl)phosphine]] the MTD (in vivo) was 32 mg/kg.
In the case of `[Cl][Au][PH](CCCC[PH]([Au][Cl])(c1ccccc1)c1ccccc1)(c1ccccc1)c1ccccc1` [Compound 4, μ-[1,4-Bis(Diphenylphosphino)Butane]Bis[Chlorogold(I)]], the IC50 [2] is reported as 3 µM, the “ILS (maximum increase in lifespan)” value (P388 leukemia; [4]) is reported as 45% and 40% and the “MTD (maximally tolerated dose)” value (P388 leukemia; mouse, in vivo, ip) is reported as 6 mg/kg.
Work on `CSc1ccc(P(CCP(c2ccc(SC)cc2)c2ccc(SC)cc2)c2ccc(SC)cc2)cc1` [Compound 48, 1,2-Ethanediyl-Bis[Bis(4-methylthiophenyl)phosphine]] yielded an MTD (in vivo) of 32 mg/kg.
With `C(=C\P(c1ccccc1)c1ccccc1)/P(c1ccccc1)c1ccccc1` [Compound 41, Trans-bis(1,2-diphenylphosphino)ethylene] the MTD (in vivo) was 128 mg/kg.
In the case of `[Cl][Au]([Cl])([Cl])[PH](CC[PH](c1ccccc1)(c1ccccc1)[Au]([Cl])([Cl])[Cl])(c1ccccc1)c1ccccc1` [Compound 12, μ-[1,2-Bis(Diphenylphosphino)Ethane]Bis[Trichlorogold(III)]], the IC50 [2] is reported as 4 µM, the “MTD (maximally tolerated dose)” value [1] is reported as 8 mg/kg and the “ILS max (maximum increase in lifespan)” value [1] is reported as 74%. The “MTD (maximally tolerated dose)” value (P388 leukemia; [3]) was 16 mg/kg and the “ILS (maximum increase in lifespan)” value (P388 leukemia; [4]) was 95% and 62%.
`CSc1ccccc1P(CCP(c1ccccc1SC)c1ccccc1SC)c1ccccc1SC` [Compound 47, 1,2-ethanediyl-bis[bis(2-methylthiophenyl)phosphine]] showed an MTD (in vivo) of 64 mg/kg.
In the case of `COc1ccc([PH](CC[PH]([Au][Cl])(c2ccc(OC)cc2)c2ccc(OC)cc2)([Au][Cl])c2ccc(OC)cc2)cc1` [Compound 24, μ-[1,2-Bis[Bis(4-methoxyphenyl)phosphino]ethanel]bis[chlorogold(I)]], the “MTD (maximally tolerated dose)” value (P388 leukemia; [3]) is reported as 8 mg/kg.
For `CCP(CC)CCP(CC)CC` [Compound 50], the “MTD (maximally tolerated dose)” value (P388 leukemia; Table BI, B6D2F1 female mice, ip qD × 5) was 128 mg/kg and the “ILS (maximum increase in lifespan)” value (P388 leukemia; Table BI, ip P388 leukemia mice, ip days 1-5, slash-separated figures are separate experiments, compound 33: 41 experiments) was 55%.
For `N#C[S][Au][PH](CC[PH]([Au][S]C#N)(c1ccccc1)c1ccccc1)(c1ccccc1)c1ccccc1` [Compound 16], the “MTD (maximally tolerated dose)” value [1] was 5 mg/kg, the “ILS max (maximum increase in lifespan)” value [1] was 52% and the “activity” value [1] was “good activity”. The “MTD (maximally tolerated dose)” value (P388 leukemia; [3]) was 6 mg/kg and the “ILS (maximum increase in lifespan)” value (P388 leukemia; [4]) was 36% and 62% and 45%.
For `CC(C(C)P(c1ccccc1)c1ccccc1)P(c1ccccc1)c1ccccc1` (single isomer, unassigned; (-)) [Compound 42], the MTD (in vivo) was 48 mg/kg.
In the case of `C1CCC(P(CCP(C2CCCCC2)C2CCCCC2)C2CCCCC2)CC1` [Compound 44, 1,2-bis(dicyclohexylphosphino)ethane], the MTD (in vivo) is reported as 32 mg/kg.
For `[Cl][Au][PH](C[PH]([Au][Cl])(c1ccccc1)c1ccccc1)(c1ccccc1)c1ccccc1` [Compound 1, μ-[1,3-Bis(Diphenylphosphino)Methane]Bis[Chlorogold(I)]], the IC50 [2] was 6 µM, the “MTD (maximally tolerated dose)” value (P388 leukemia; [3]) was 50 mg/kg and the “ILS (maximum increase in lifespan)” value (P388 leukemia; [4]) was 62% and 50%.
With `[Cl][Au][PH](CC[PH](Cc1ccccc1)(Cc1ccccc1)[Au][Cl])(Cc1ccccc1)Cc1ccccc1` [Compound 23, μ-[1,2-Bis(Dibenzylphosphino)Ethane]Bis[Chlorogold (I)]] the “MTD (maximally tolerated dose)” value [1] was 4 mg/kg, the “ILS max (maximum increase in lifespan)” value [1] was 40% and the “MTD (maximally tolerated dose)” value (P388 leukemia; [3]) was 4 mg/kg. For the same molecule, the “ILS (maximum increase in lifespan)” value (P388 leukemia; [4]) was 45% and 30%.
For `[Cl][Cu][PH](CC[PH]([Cu][Cl])(c1ccccc1)c1ccccc1)(c1ccccc1)c1ccccc1` [Compound 14, μ-[1,2-Bis(Diphenylphosphino)Ethane]Bis[Chlorocopper(I)]], the “MTD (maximally tolerated dose)” value (P388 leukemia; [3]) was 4 mg/kg and the “ILS (maximum increase in lifespan)” value (P388 leukemia; [4]) was 65% and 79%.
For `[Cl][Au-][P+](CCCCCC[P+]([Au-][Cl])(c1ccccc1)c1ccccc1)(c1ccccc1)c1ccccc1` [Compound 6, μ-[1,6-Bis(Diphenylphosphino)Hexane]Bis[Chlorogold(I)]], the IC50 [2] was 2 µM, the “ILS (maximum increase in lifespan)” value (P388 leukemia; mouse, in vivo, ip) was 40% and 35% and the “MTD (maximally tolerated dose)” value (P388 leukemia; mouse, in vivo, ip) was 4 mg/kg.
With `CC[PH](CC)(CC[PH]([Au][Cl])(c1ccccc1)c1ccccc1)[Au][Cl]` [Compound 21, μ-[1-Diethylphosphino-2-Diphenylphosphino-Ethane]bis-[Chlorogold(I)]] the “MTD (maximally tolerated dose)” value (P388 leukemia; [3]) was 16 mg/kg and the “ILS (maximum increase in lifespan)” value (P388 leukemia; [4]) was 30%.
For `CC(=O)[O][Au][PH](CC[PH]([Au][O]C(C)=O)(c1ccccc1)c1ccccc1)(c1ccccc1)c1ccccc1` [Compound 17, μ-[1,2-Bis(Diphenylphosphino)Ethane]Bis[Acetatogold(I)]], the “MTD (maximally tolerated dose)” value [1] was 4 mg/kg, the “ILS max (maximum increase in lifespan)” value [1] was 54% and 67% and the “activity” value [1] was “good activity”. For the same molecule, the “MTD (maximally tolerated dose)” value (P388 leukemia; [3]) was 4 mg/kg and the “ILS (maximum increase in lifespan)” value (P388 leukemia; [4]) was 73% and 64%.
In the case of `FC(F)(F)[S][Au][PH](CC[PH]([Au][S]C(F)(F)F)(c1ccccc1)c1ccccc1)(c1ccccc1)c1ccccc1` [Compound 18, μ-[1,2-Bis(diphenylphosphino)ethane]Bis[trifluoromethyl-thiogold(I)]], the “ILS max (maximum increase in lifespan)” value [1] is reported as 70%.
In the case of `CCP(CC)CCP(CC)CC` [Compound 49], the MTD (in vivo) is reported as 64 mg/kg.
For `CCOC(=S)[S][Au][PH](CC(O)[PH]([Au][S]C(=S)OCC)(c1ccccc1)c1ccccc1)(c1ccccc1)c1ccccc1` (stereo not shown) [Compound 19, μ-[1,2-Bis(Diphenylphosphino)Ethanol]Bis[O-Ethyldithiocarbonatogold(I)]], the “MTD (maximally tolerated dose)” value (P388 leukemia; [3]) was 6 mg/kg.
With `Fc1ccc(P(CCP(c2ccc(F)cc2)c2ccc(F)cc2)c2ccc(F)cc2)cc1` [Compound 45, 1,2-ethanediyl-bis[bis(4-fluorophenyl)phosphine]] the MTD (in vivo) was 8 mg/kg.
In the case of `[Cl][Au-][P+](CCCCC[P+]([Au-][Cl])(c1ccccc1)c1ccccc1)(c1ccccc1)c1ccccc1` [Compound 5, μ-[1,5-Bis(Diphenylphospinio)Pentane]Bis[Chlorogold(I)]], the IC50 [2] is reported as 2 µM, the “MTD (maximally tolerated dose)” value (P388 leukemia; [3]) is reported as 4 mg/kg and the “ILS (maximum increase in lifespan)” value (P388 leukemia; [4]) is reported as 55%.
For `c1ccc(P(CCCCP(c2ccccc2)c2ccccc2)c2ccccc2)cc1` [Compound 38, Bis(1,4-diphenylphosphino)butane], the MTD (in vivo) was 28 mg/kg.
